# Measured values published in patent US6982348B2, “Aminoethanol derivatives” (Takeda Pharmaceutical Company Limited, priority 2001, dated 2006).
row,melting point [°C],Structure (SMILES)
1,127 to 128,"CC(C)(C)OC(=O)N[C@H](Cc1cccc(OC(F)(F)C(F)F)c1)[C@@H](O)c1csc(-c2ccccc2)n1 (racemic) [Example 361, tert-butyl (1RS,2RS)-2-hydroxy-2-(2-phenyl-1,3-thiazol-4-yl)-1-[3-(1,1,2,2-tetrafluoroethoxy)benzyl]ethylcarbamate]"
2,148 to 150,"O=C(N[C@H](Cc1cccc(OC(F)(F)C(F)F)c1)[C@@H](O)c1csc(-c2ccccc2)n1)c1ccc(F)c2ccccc12 (racemic) [Example 362, 4-fluoro-N-{(1RS,2RS)-2-hydroxy-2-(2-phenyl-1,3-thiazol-4-yl)-1-[3-(1,1,2,2-tetrafluoroethoxy)benzyl]ethyl}-1-naphthamide]"
3,148 to 149,"CC(C)(C)c1ccc(C[C@@H](NC(=O)c2cccc3c(F)cccc23)[C@@H](O)c2ccc(F)cc2)cc1 (racemic) [Example 364, N-[(1RS,2SR)-1-(4-tert-butylbenzyl)-2-(4-fluorophenyl)-2-hydroxyethyl]-5-fluoro-1-naphthamide]"
4,165 to 166,"CC(C)(C)COc1cccc(C[C@@H](NC(=O)c2ccc(F)c3ccccc23)[C@@H](O)c2cccc(Cl)c2)c1 (racemic) [Example 366, N-[(1RS,2SR)-1-[3-(neopentyloxy)benzyl]-2-(3-chlorophenyl)-2-hydroxyethyl]-4-fluoro-1-naphthamide]"
5,142 to 143,"CC(C)(C)COc1cccc(C[C@@H](NC(=O)c2cccc3c(Cl)cccc23)[C@@H](O)c2cccc(Cl)c2)c1 (racemic) [Example 367, N-[(1RS,2SR)-1-[3-(neopentyloxy)benzyl]-2-(3-chlorophenyl)-2-hydroxyethyl]-5-chloro-1-naphthamide]"
6,128 to 129,"CC(C)(C)COc1cccc(C[C@@H](NC(=O)c2cccc3c2C=CCCC3)[C@@H](O)c2cccc(Cl)c2)c1 (racemic) [Example 368, N-[(1RS,2SR)-1-[3-(neopentyloxy)benzyl]-2-(3-chlorophenyl)-2-hydroxyethyl]-6,7-dihydro-5H-benzo[a]cycloheptene-1-carboxamide]"
7,76 to 78,"CC(C)(C)c1cccc(C[C@@H](NC(=O)c2ccc(F)c3ccccc23)[C@@H](O)c2cccc(Cl)c2)c1 (racemic) [Example 369, N-[(1RS,2SR)-1-[3-(tert-butyl)benzyl]-2-(3-chlorophenyl)-2-hydroxyethyl]-4-fluoro-1-naphthamide]"
8,91 to 93,"CC(C)(C)c1cccc(C[C@@H](NC(=O)c2cccc3c(Cl)cccc23)[C@@H](O)c2cccc(Cl)c2)c1 (racemic) [Example 371, N-[(1RS,2SR)-1-[3-(tert-butyl)benzyl]-2-(3-chlorophenyl)-2-hydroxyethyl]-5-chloro-1-naphthamide]"
9,156 to 157,"CC(C)(C)OC(=O)N[C@H](Cc1ccc(CC(F)(F)C(F)(F)F)cc1)[C@@H](O)c1cccc(Cl)c1 (racemic) [Example 372, tert-butyl (1RS,2SR)-2-(3-chlorophenyl)-2-hydroxy-1-[4-(2,2,3,3,3-pentafluoropropyl)benzyl]ethylcarbamate]"
10,191 to 192,"O=C(N[C@H](Cc1ccc(CC(F)(F)C(F)(F)F)cc1)[C@@H](O)c1cccc(Cl)c1)c1ccc(F)c2ccccc12 (racemic) [Example 373, N-[(1RS,2SR)-1-[4-(2,2,3,3,3-pentafluoropropyl)benzyl]-2-(3-chlorophenyl)-2-hydroxyethyl]-4-fluoro-1-naphthamide]"
11,176 to 177,"O=C(N[C@H](Cc1ccc(CC(F)(F)C(F)(F)F)cc1)[C@@H](O)c1cccc(Cl)c1)c1cccc2c1C=CCCC2 (racemic) [Example 374, N-[(1RS,2SR)-1-[4-(2,2,3,3,3-pentafluoropropyl)benzyl]-2-(3-chlorophenyl)-2-hydroxyethyl]-6,7-dihydro-5H-benzo[a]cycloheptene-1-carboxamide]"
12,216 to 217,"O=C(N[C@H](Cc1ccc(CC(F)(F)C(F)(F)F)cc1)[C@@H](O)c1cccc(Cl)c1)c1cccc2c(Cl)cccc12 (racemic) [Example 375, 5-chloro-N-{(1RS,2SR)-2-(3-chlorophenyl)-2-hydroxy-1-[4-(2,2,3,3,3-pentafluoropropyl)benzyl]ethyl}-1-naphthamide]"
13,149 to 150,"CC1(C)COc2ccc(C[C@@H](NC(=O)c3cccc4c3C=CCCC4)[C@@H](O)c3cccc(Cl)c3)cc21 (racemic) [Example 377, N-{(1RS,2SR)-2-(3-chlorophenyl)-1-[(3,3-dimethyl-2,3-dihydro-1-benzofuran-5-yl)methyl]-2-hydroxyethyl}-6,7-dihydro-5H-benzo[a]cycloheptene-1-carboxamide]"
14,191 to 192,"CC1(C)COc2ccc(C[C@@H](NC(=O)c3cccc4c(Cl)cccc34)[C@@H](O)c3cccc(Cl)c3)cc21 (racemic) [Example 378, 5-chloro-N-{(1RS,2SR)-2-(3-chlorophenyl)-1-[(3,3-dimethyl-2,3-dihydro-1-benzofuran-5-yl)methyl]-2-hydroxyethyl}-1-naphthamide]"
15,104 to 106,"CC(C)(C)C(F)(F)c1ccc(C[C@@H](NC(=O)c2ccc(F)c3ccccc23)[C@@H](O)c2cccc(Cl)c2)cc1 (racemic) [Example 379, N-{(1RS,2SR)-2-(3-chlorophenyl)-1-[4-(1,1-difluoro-2,2-dimethylpropyl)benzyl]-2-hydroxyethyl}-4-fluoro-1-naphthamide]"
16,119 to 120,"CC(C)(C)C(F)(F)c1ccc(C[C@@H](NC(=O)c2cccc3c2C=CCCC3)[C@@H](O)c2cccc(Cl)c2)cc1 (racemic) [Example 380, N-{(1RS,2SR)-2-(3-chlorophenyl)-1-[4-(1,1-difluoro-2,2-dimethylpropyl)benzyl]-2-hydroxyethyl}-6,7-dihydro-5H-benzo[a]cycloheptene-1-carboxamide]"
17,99 to 101,"CC(C)(C)C(F)(F)c1ccc(C[C@@H](NC(=O)c2cccc3c(Cl)cccc23)[C@@H](O)c2cccc(Cl)c2)cc1 (racemic) [Example 381, 5-chloro-N-{(1RS,2SR)-2-(3-chlorophenyl)-1-[4-(1,1-difluoro-2,2-dimethylpropyl)benzyl]-2-hydroxyethyl}-1-naphthamide]"
18,176 to 177,"CC(=O)O[C@H](c1ccc(F)cc1)[C@H](Cc1cccc(OC(F)(F)C(F)F)c1)NC(=O)c1cccc2c1C=CCCC2 (racemic) [Example 382, (1RS,2SR)-2-[(6,7-dihydro-5H-benzo[a]cyclohepten-1-ylcarbonyl)amino]-1-(4-fluorophenyl)-3-[3-(1,1,2,2-tetrafluoroethoxy)phenyl]propyl acetate]"
19,212 to 213,"O=C(N[C@@H](Cc1ccc(C(F)(F)F)cc1)[C@H](O)c1ccc(F)cc1)c1ccc(C(F)F)c2ccccc12 [Example 64, 4-(difluoromethyl)-N-((1S,2R)-2-(4-fluorophenyl)-2-hydroxy-1-((4-(trifluoromethyl)phenyl)methyl)ethyl)-1-naphthalenecarboxamide]"

row,Structure (SMILES),melting point [°C]
1,"CC(C)(C)OC(=O)NCC(=O)O[C@H](c1ccc(F)cc1)[C@H](Cc1cccc(OC(F)(F)C(F)F)c1)NC(=O)c1cccc2c1C=CCCC2 (racemic) [Example 386, N-(tert-butoxycarbonyl)glycine (1RS,2SR)-2-[(6,7-dihydro-5H-benzo[a]cyclohepten-1-ylcarbonyl)amino]-1-(4-fluorophenyl)-3-[3-(1,1,2,2-tetrafluoroethoxy)phenyl]propyl ester]",151 to 152
2,"CC(C)(C)OC(=O)NCC(=O)O[C@H](c1ccc(F)cc1)[C@H](Cc1cccc(OC(F)(F)C(F)F)c1)NC(=O)c1ccc(F)c2ccccc12 (racemic) [Example 390, N-(tert-butoxycarbonyl)glycine (1RS,2SR)-2-[(4-fluoro-1-naphthoyl)amino]-1-(4-fluorophenyl)-3-[3-(1,1,2,2-tetrafluoroethoxy)phenyl]propyl ester]",126 to 127
